This is an account of results in patent publication EP0729957A1, “PYRIDINE COMPOUND AND MEDICINAL USE THEREOF” (YOSHITOMI PHARMACEUTICAL INDUSTRIES, LTD., priority 1993, dated 1995).

The subject of experiment [1] is gastric acid secretion. In words: Action on gastric acid secretion of rats subjected to gastroperfusion (histamine-induced). Particulars: 3 mg/kg i.v., 5 minutes before histamine hydrochloride (1 mg/kg i.v.); urethane-anesthetized Wistar rats. The format is in vivo. On the procedure:
Experimental Example 2: Action on gastric acid secretion of rats subjected to gastroperfusion
The experiment was done according to the method of Ghosh et al, Br. J. Pharmacol. 13, p 54 (1958). Wistar rats were fasted for 20 hours and anesthetized with urethane (1.5 g/kg, subcutaneous). A polyethylene tube for injection and discharge for gastroperfusion was attached to the rats. Gastroperfusion was performed using physiological saline (37°C) at a speed of 7 ml/min and the perfusate was recovered at 10-min intervals. Histamine hydrochloride (1 mg/kg) was intravenously administered at 1-hr intervals to induce secretion of gastric acid. A test solution containing the test compound was intravenously administered 5 minutes before the histamine hydrochloride administration. The acidity of the gastric acid was titrated up to pH 7.0 with an automatic titrator and percent suppression of gastric acid secretion by the test compound was determined.

In experiment [2] the test system is Helicobacter pylori. The experiment can be described thus: Antibacterial activity (in vitro) against Helicobacter pylori, agar dilution MIC. Format: cell-based. Particulars: clinical isolates (18 strains), agar plate, 37°C, 8% CO2, 3-4 days; for MIC50: minimum concentration necessary for inhibiting growth by 50%; for MIC90: minimum concentration necessary for inhibiting growth by 90%. (In general: In agar dilution the substance is mixed into plates at graded concentrations.)

Where [3] appears, read: Helicobacter pylori, read-out: MIC50.
[4] abbreviates: Helicobacter pylori, read-out: MIC90.

Where a name gives a salt, the structure may show the parent alone. Read-outs that look alike come from different tables or passages of the source.

Regarding “2-((3-methyl-4-(2-(2-methoxpolyethoxy)ethylthio)-2-pyridyl)methylsulfinyl)-1H-benzimidazole [Example 25]”, the “Suppression (%)” value in experiment [1] came out at 100%. As a reminder, the MIC50 is the lowest concentration that inhibits either 50% of growth or 50% of the strains tested, depending on the study. What is called MIC90 is an inhibitory concentration at the 90% level, which refers to growth in some studies and to a panel of isolates in others. In experiment [2], “2-((3-methyl-4-(2-(2-methoxypolyethoxy)ethylthio)-2-pyridyl)methylthio)-1H-benzimidazole·hydrochloride [Example 22]” registered an MIC50 of 0.025 µg/mL and an MIC90 of 0.025 µg/mL. Regarding “2-((3-methyl-4-(2-methoxypolyethoxy)-2-pyridyl) methylsulfinyl)-1H-benzimidazole [Example 26]”, the “Suppression (%)” value in experiment [1] is reported as 50%.

Take `COCCOCCSc1ccnc(CSc2nc3ccccc3[nH]2)c1C` [Example 17, 2-((3-methyl-4-(2-(2-methoxyethoxy)ethylthio)-2-pyridyl)methylthio)-1H-benzimidazole·hydrochloride]: in experiment [2] (setting [3]), the MIC50 came out at 0.025 µg/mL. The MIC90 in experiment [2] (setting [4]) came out at 0.05 µg/mL. The corresponding values for `COCCOCCOCCSc1ccnc(CSc2nc3ccccc3[nH]2)c1C` [Example 21, 2-((3-methyl-4-(2-(2-(2-methoxyethoxy)ethoxy)ethylthio)-2-pyridyl)methylthio)-1H-benzimidazole·hydrochloride] are 0.012 µg/mL and 0.025 µg/mL.
